{"source": "patent US11952362B2", "about": "“Compositions and methods for treating epigenetic disease” (The Regents of the University of California, priority 2018, dated 2024)", "key": {"[1]": {"system": "RT-112 bladder cancer cells", "experiment": "Cell viability assay (CellTiter Glo), RT-112", "assay_type": "cell-based", "experimental": "(§1) Pancreatic cancer cell lines (MIA PaCa-2 and CAPAN-2) were purchased from ATCC. MIA PaCa-2 were grown in DMEM and CAPAN-2 in McCoy's 5A (Gibco). Colon cancer cell lines (SW480 and HT-29) were purchased from ATCC. SW480 were grown in Leibovitz's L-15 (ATCC) and HT-29 in McCoy's 5A (Gibco). Lung cancer cell lines (NCI 460 and NCI 1975) were purchased from ATCC and grown in RPMI 1640 (Gibco). PC-3 prostate cancer cell line was purchased from ATCC and grown in F-12K (ATCC). Bladder cancer cell line 5637 was purchased from ATCC and RT-112 was purchased from Sigma-Aldrich and was grown in RPMI 1640 (Gibco). Bladder cancer cell lines, UMUC-9, UMUC-15 and UMUC-7 were purchased from MD Anderson and were grown in EMEM (ATCC). Bladder cancer cell line J82 was purchased from ATCC and was grown in EMEM (ATCC). SW1710 and EJ28 bladder cancer cell lines were purchased from DSMZ and were grown in DMEM (ATCC) and RPMI-1640 (Gibco), respectively. Bladder cancer cell line T24 was purchased from ATCC and grown in McCoy's 5A (Gibco). Bladder cancer cell line BC-3C was purchased from DSMZ and was grown in McCoy's 5A (Gibco). All media were supplemented with 10% FBS (Gemini Bioproducts) and 1% Antibiotic-Antimycotic (Gibco). In the case of MIA PaCa-2, medium was also supplemented with 2.5% horse serum (Gibco). NCM356 colon epithelial cell lines were growth in M3:10 (INCELL, San Antonio, Tex.). A CMV-driven-HDAC9 vector was used to overexpress HDAC9 levels in NCM356 cells. IL1B and TNFA mRNA levels were measured by qPCR analysis as described previously (Fang K et al. Am J Pathol, 188(3):586-99, 2018).\n(§2) 1.8×10^3 cells/well were plated in quadruplicates in 96-well plate and treated with exogenously added MJK analogues 6 hours after plating. For the experiments performed to calculate the IC50s of HDAC9 analogues, a secondary treatment of exogenously added MJK analogues was performed 2 days later. Cell growth was assessed 1, 3, 5 or 7 days after plating using the CellTiter Glo Luminescence Cell Viability Assay (Promega) according to manufacturer's protocol. For the experiments where the effect of combinatorial treatment of MJK-004 analogues with chemotherapy was assessed, treatment of cells with gemcitabine (10 nM) or 5-fluouracil (2000 nM) was performed one day after MJK-004 treatment and the cells were further treated with exogenously added MJK analogues 2 days later. Cell growth was assessed 3, 4, 5 or 6 days after plating using the CellTiter Glo Luminescence Cell Viability Assay (Promega) according to manufacturer's protocol. Data are expressed as mean […] (arbitrary units)±S.D.\nCell Viability Assays were employed to determine the concentration of MJK analogues where the response is reduced by half. For each treatment of cancer cells, 1, 2, 5, 10 and 20 μM of MJK analogues were applied. GraphPad Prism 7 software was used to fit dose response curves. Relative Luciferase Activity Units were plotted against the log values of the doses used and the nonlinear regression model was used for data analysis.\nMJK-001 effects on a cancer cell line panel: The effects of MJK-001 (20 uM) on cancer cell growth was evaluated in 9 cancer cell lines, consisting of bladder, colon, lung, prostate and pancreatic cancer cell lines. Cell growth was measured on day 5. Bladder cancer cell lines (RT-112, 5637) were more responsive to MJK-001 treatment, followed by the colon and pancreatic cancer cell lines shown in Table 3."}, "HDAC9": {"biological_target": "T1, HDAC9 (Homo sapiens, UniProt Q9UKV0)", "T1 construct": "purchased BPS Bioscience 50069", "T1 sequence (Q9UKV0 whole entry)": "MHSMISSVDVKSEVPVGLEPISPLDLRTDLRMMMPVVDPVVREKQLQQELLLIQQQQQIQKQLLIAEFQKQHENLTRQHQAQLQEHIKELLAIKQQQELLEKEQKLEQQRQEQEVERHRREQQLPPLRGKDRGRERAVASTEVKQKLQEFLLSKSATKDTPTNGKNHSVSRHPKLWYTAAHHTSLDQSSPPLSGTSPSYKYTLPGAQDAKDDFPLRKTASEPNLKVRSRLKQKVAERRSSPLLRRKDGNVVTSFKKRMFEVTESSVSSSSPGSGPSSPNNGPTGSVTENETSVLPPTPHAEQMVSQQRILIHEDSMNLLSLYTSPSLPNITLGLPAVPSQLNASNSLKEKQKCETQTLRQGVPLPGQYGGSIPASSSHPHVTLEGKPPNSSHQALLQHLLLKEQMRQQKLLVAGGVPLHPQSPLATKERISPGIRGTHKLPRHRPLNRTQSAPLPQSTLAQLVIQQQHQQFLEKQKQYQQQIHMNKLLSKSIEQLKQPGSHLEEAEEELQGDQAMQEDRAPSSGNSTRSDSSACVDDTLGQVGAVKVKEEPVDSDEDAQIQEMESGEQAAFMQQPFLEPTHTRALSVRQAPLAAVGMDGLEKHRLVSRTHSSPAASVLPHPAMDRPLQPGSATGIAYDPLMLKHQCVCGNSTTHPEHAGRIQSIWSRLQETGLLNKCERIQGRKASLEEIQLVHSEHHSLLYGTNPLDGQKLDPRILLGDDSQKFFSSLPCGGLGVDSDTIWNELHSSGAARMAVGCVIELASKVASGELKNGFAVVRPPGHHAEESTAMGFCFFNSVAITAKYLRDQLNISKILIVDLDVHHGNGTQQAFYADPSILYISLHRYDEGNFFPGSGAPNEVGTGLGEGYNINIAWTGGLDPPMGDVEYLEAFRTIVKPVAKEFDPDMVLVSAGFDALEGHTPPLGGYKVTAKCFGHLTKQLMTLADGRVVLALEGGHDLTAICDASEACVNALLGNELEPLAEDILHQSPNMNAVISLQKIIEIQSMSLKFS", "experiment": "Fluorogenic HDAC9 activity assay", "assay_type": "biochemical", "conditions": "fluorogenic assay kit, in words", "experimental": "To measure the effects of MJK-001, -004, -006 and -008 on HDAC4 & 9 activity fluorogenic HDAC9 (#50069) and HDAC4 (#50064) assay kits (BPS Bioscience) were used. Briefly, these assays consist of two steps; in the first one the HDAC fluorometric substrate containing an acetylated lysine side chain is incubated with purified HDAC9. In the second step, the deacetylation sensitizes the substrate so subsequent treatment with the lysine developer produces a fluorophore that was measured by a fluorescence reader."}, "[2]": {"experiment": "Water solubility of MJK compounds", "assay_type": "physicochemical", "source_text": "Solubility of MJK compounds: The development of an oral formulation for patients with auto-immune diseases, including Crohn's Disease, is preferential and less expensive, avoiding the need of hospitalization in comparison to the intracolonic (enema) administration. Thus, the water solubility and physical properties of the MJK compounds were examined. […] MJK-008 is the highest soluble MJK compound."}, "[3]": {"system": "5637 bladder cancer cell line", "experiment": "Cell viability assay (CellTiter Glo), 5637", "assay_type": "cell-based", "conditions": "for pIC50: 5637 cell growth", "experimental": "as §1, with “All media were supplemented with 10% FBS (Gemini Bioproducts) and 1% Antibiotic-Antimycotic (Gibco). In the case of MIA PaCa-2, medium was also supplemented with 2.5% horse serum (Gibco). NCM356 colon epithelial cell lines were growth in M3:10 (INCELL, San Antonio, Tex.). A CMV-driven-HDAC9 vector was used to overexpress HDAC9 levels in NCM356 cells.” left out\nas §2, with “For the experiments performed to calculate the IC50s of HDAC9 analogues, a secondary treatment of exogenously added MJK analogues was performed 2 days later.” left out, “units)±S.D. […]” for “units)±S.D.”"}, "[4]": {"system": "BC3C bladder cancer cell line", "experiment": "Cell viability assay (CellTiter Glo), BC3C", "assay_type": "cell-based", "conditions": "BC3C cell growth", "experimental": "(§3) Pancreatic cancer cell lines (MIA PaCa-2 and CAPAN-2) were purchased from ATCC. MIA PaCa-2 were grown in DMEM and CAPAN-2 in McCoy's 5A (Gibco). Colon cancer cell lines (SW480 and HT-29) were purchased from ATCC. SW480 were grown in Leibovitz's L-15 (ATCC) and HT-29 in McCoy's 5A (Gibco). Lung cancer cell lines (NCI 460 and NCI 1975) were purchased from ATCC and grown in RPMI 1640 (Gibco). PC-3 prostate cancer cell line was purchased from ATCC and grown in F-12K (ATCC). Bladder cancer cell line 5637 was purchased from ATCC and RT-112 was purchased from Sigma-Aldrich and was grown in RPMI 1640 (Gibco). […] IL1B and TNFA mRNA levels were measured by qPCR analysis as described previously (Fang K et al. Am J Pathol, 188(3):586-99, 2018).\n(§4) 1.8×10^3 cells/well were plated in quadruplicates in 96-well plate and treated with exogenously added MJK analogues 6 hours after plating. […] Cell growth was assessed 1, 3, 5 or 7 days after plating using the CellTiter Glo Luminescence Cell Viability Assay (Promega) according to manufacturer's protocol. For the experiments where the effect of combinatorial treatment of MJK-004 analogues with chemotherapy was assessed, treatment of cells with gemcitabine (10 nM) or 5-fluouracil (2000 nM) was performed one day after MJK-004 treatment and the cells were further treated with exogenously added MJK analogues 2 days later. […]"}, "[5]": {"system": "EJ28 bladder cancer cell line", "experiment": "Cell viability assay (CellTiter Glo), EJ28", "assay_type": "cell-based", "conditions": "Homo sapiens, EJ-28; EJ28 cell growth", "experimental": "as §3, §4"}, "[6]": {"system": "RT-112 bladder cancer cells", "experiment": "Anchorage-independent cell growth assay (colonies in soft agar)", "assay_type": "cell-based", "conditions": "RT-112, treated at 1xIC50 or 2xIC50 for 3 days", "experimental": "Quadruplicate samples of 1×10^6 bladder cancer cells, that were previously untreated or treated with the MJK-004 at the concentration corresponding to the 1×IC50 or 2×IC50 for each cell line (as assessed at the third day after cells' plating and treatment) for 3 days, were assayed in 96-well plates for colony formation using the CytoSelect Cell Transformation kit (Cell Biolabs, Inc) according to manufacturer's protocol. Seven days later, live cells were detected using a colorimetric format. The MTT dye was added directly to the cultured cells followed by a detergent solution. Quantitation was performed using a standard microplate reader at 540-570 nm. Data were expressed as the mean±S.D."}, "[7]": {"system": "NCI-460 lung cancer cell line", "experiment": "Cell viability assay (CellTiter Glo), NCI-460", "assay_type": "cell-based", "conditions": "120 h; NCI-460, 20 uM, day 5; read-out: % growth inhibition", "experimental": "as §3, §4"}, "[8]": {"system": "NCI-1975 lung cancer cell line", "experiment": "Cell viability assay (CellTiter Glo), NCI-1975", "assay_type": "cell-based", "conditions": "120 h; NCI-1975, 20 uM, day 5; read-out: % growth inhibition", "experimental": "as §3, §4"}, "[9]": {"system": "PC-3 prostate cancer cell line", "experiment": "Cell viability assay (CellTiter Glo), PC-3", "assay_type": "cell-based", "conditions": "120 h; PC-3, 20 uM, day 5; read-out: % growth inhibition", "experimental": "as §3, §4"}, "[10]": {"system": "HT-29 colon cancer cell line", "experiment": "Cell viability assay (CellTiter Glo), HT-29", "assay_type": "cell-based", "conditions": "Homo sapiens, 120 h; HT-29, 20 uM, day 5; read-out: % growth inhibition", "experimental": "as §3, §4"}, "[11]": {"conditions": "Homo sapiens, RT-112 cell growth"}}, "note": "pIC50: −log10 of the molar value. “Also recorded” adds a separate entry of the source. Like-named read-outs stand apart in the source and are kept apart here.", "data": [{"smiles": "Cl.Cn1c(/C=C/C(=O)NO)ccc1/C=C/C(=O)c1cccnc1", "note": "[MJK008, (E)-N-Hydroxy-3-(1-methyl-5-((E)-3-oxo-3-(pyridin-3-yl)prop-1-en-1-yl)-1H-pyrrol-2-yl)ac-rylamide hydrochloride]", "values": [{"measurement": "IC50 (uM) values", "setting": "[1]; RT-112 cell growth", "value": "ns"}, {"measurement": "HDAC9 activity / specificity", "setting": "HDAC9; hydrochloride", "value": "high specificity for the HDAC9 isoform; also recorded: significantly increased specificity of targeting the HDAC9 isoform"}, {"measurement": "Solubility score", "setting": "[2]; hydrochloride", "value": "highest solubility"}]}, {"smiles": "Cn1c(/C=C/C(=O)NO)ccc1/C=C/C(=O)c1cccs1", "note": "[MJK004, (E)-N-hydroxy-3-(1-methyl-5-((E)-3-oxo-3-(thiophen-2-yl)prop-1-en-1-yl)-1H-pyrrol-2-yl)acrylamide]", "values": [{"measurement": "pIC50", "setting": "[3]", "value": 5.12}, {"measurement": "IC50", "setting": "[1]; [11]", "value": 2.37, "unit": "µM"}, {"measurement": "cell growth, monotherapy", "setting": "[1]; RT-112, days 4 & 5", "value": "suppressed bladder cancer growth in both cell lines as a monotherapy"}, {"measurement": "cell growth, combination with gemcitabine", "setting": "[1]; RT-112, gemcitabine 10 nM, days 4 & 5", "value": "increased gemcitabine's efficacy"}, {"measurement": "HDAC9 activity / specificity", "setting": "HDAC9", "value": "very low activity against HDAC9"}, {"measurement": "pIC50", "setting": "[4]", "value": 5.23}, {"measurement": "pIC50", "setting": "[5]", "value": 5.18}, {"measurement": "ability to form colonies in soft agar", "setting": "[6]", "value": "reduced significantly"}]}, {"smiles": "Cn1c(/C=C/C(=O)NO)ccc1/C=C/C(=O)c1cccnc1", "note": "[MJK006, (E)-N-hydroxy-3-(1-methyl-5-((E)-3-oxo-3-(pyridin-3-yl)prop-1-en-1-yl)-1H-pyrrol-2-yl)acrylamide]", "values": [{"measurement": "pIC50", "setting": "[3]", "value": 2.76}, {"measurement": "IC50", "setting": "[1]; [11]", "value": 38.3, "unit": "µM"}, {"measurement": "HDAC9 activity / specificity", "setting": "HDAC9", "value": "high specificity for the HDAC9 isoform; also recorded: significantly increased specificity of targeting the HDAC9 isoform"}, {"measurement": "pIC50", "setting": "[4]", "value": 4.44}, {"measurement": "pIC50", "setting": "[5]", "value": 3.45}, {"measurement": "Solubility score", "setting": "[2]", "value": "worst solubility"}]}, {"smiles": "Cn1c(/C=C/C(=O)NO)ccc1/C=C/C(=O)c1cccc(F)c1", "note": "[MJK001, (E)-3-(5-((E)-3-(3-Fluorophenyl)-3-oxoprop-1-en-1-yl)-1-methyl-1H-pyrrol-2-yl)-N-hydro-xyacrylamide]", "values": [{"measurement": "inhibition at 20 µM", "setting": "[3]; 120 h, 5637, 20 uM, day 5, read-out: % growth inhibition", "value": 42.1, "unit": "%"}, {"measurement": "inhibition at 20 µM", "setting": "[1]; Homo sapiens, RT-112, 120 h, RT112, 20 uM, day 5, read-out: % growth inhibition", "value": 51, "unit": "%"}, {"measurement": "IC50", "setting": "[1]; [11]", "value": 9.15, "unit": "µM"}, {"measurement": "inhibition at 20 µM", "setting": "[7]", "value": 3.42, "unit": "%"}, {"measurement": "HDAC9 activity / specificity", "setting": "HDAC9", "value": "partially blocks"}, {"measurement": "inhibition at 20 µM", "setting": "[8]", "value": 11.8, "unit": "%"}, {"measurement": "inhibition at 20 µM", "setting": "[9]", "value": 26.8, "unit": "%"}, {"measurement": "inhibition at 20 µM", "setting": "[10]", "value": 19.7, "unit": "%"}]}]}
